{
  "source": "patent US10335382B2",
  "about": "“Use of hydrogen sulfide synthesis inhibitors for cancer therapy” (THE BOARD OF REGENTS OF THE UNIVERSITY OF TEXAS SYSTEM, priority 2013, dated 2019)",
  "key": {"[1]": {"test_system": "HCT116 tumor xenografts", "experiment": "HCT116 tumor xenograft in nude mice", "format": "in vivo, Nu/nu Balb/C female mice", "details": "AOAA 9 mg/kg/day s.c.", "description": "Nu/nu Balb/C female mice (8-10 weeks) were injected subcutaneously in the right and left dorsum (10^6 cells/side with HCT-116 cells). One week later, the mice were randomized and subcutaneous injections of phosphate buffered saline (PBS) or AOAA (9 mg/kg/day) were performed 6 days/week. Tumor diameters were measured transcutaneously using calipers and tumor volumes were calculated using the formula V=(π/6)hd^2. T-test comparisons of the tumor volumes and final weights at harvest were performed. Xenotrials with patient-derived xenografts (PTX) were performed on nu/nu mice implanted subcutaneously with a piece of Passage 2 tumor measuring 2-5 mm^3 each. When a small palpable tumor was evident at 7-10 days, the mice with tumor take were randomized and subjected to subcutaneous injection of vehicle or AOAA (9 mg/kg/day) 6 days/week. Specimens were fixed with 10% formalin and embedded in paraffin. 5 μm sections were stained with hematoxylin and eosin. Each in vivo experiment was repeated at least twice.\nTissue preparation, immunostaining of CD31, and evaluation of microvessel density with the Chakley reticle was performed as described (Chao et al. (1996) Cancer Res. 56:4811-19).\nNu/nu Balb/c female mice (8-10 weeks) were injected subcutaneously in the right and left dorsum (10^6 cells/side with HCT116 cells). One week later, the mice were randomized and subcutaneous injection of phosphate buffered saline (PBS control) or YD2-51 (0.1, 0.5 or 1 mg/kg) was performed 6 days/week. Tumor volumes and final weights at harvest (post-tumor injection Day 28) were performed and tumor weight/animal weight ratios calculated."}, "[2]": {"test_system": "human endothelial cells (EAhy926)", "experiment": "Endothelial cell migration in co-culture with HCT116", "format": "cell-based", "details": "4 hours at 37° C.", "description": "FIG. 3. […] (A, B) The lentiviral shRNA vectors targeting CBS (shCBS) and CSE (shCSE) were transfected into HCT116 cells. A non-targeting sequence was used as control (shNT). […] Following CBS and CSE silencing, cells were seeded at the density of 3000 cells/well in xCELLigence plates and proliferation was monitored for 36 hours. […] The NCM356 cells were infected overnight with a CBS expressing adenovirus (Ad-CBS, 10 multiplicity of infection (MOI)) or its control, a green fluorescent protein (Ad-GFP). The culture media was then replaced and cells were seeded in XCelligence plates at 3000 cells/well. Cell proliferation was then measured real-time over 36 hours. […] (H, I) The effect of AOAA and NaHS was also tested on HCT116 cell migration (H) and invasion (I). […]\nCellular migration and invasion assays were performed as described (Chao et al. (1996) Cancer Res. 56:4811-19). […] Migrated and invaded cells were then fixed in Carson's fixative, stained in 0.33% toluidine blue and quantified by visual counting. For the HCT116-EAhy926 co-culture experiment, the cancer cell line was grown to confluence in the bottom wells of the transwell chambers and then endothelial cell migration was assessed (Coletta et al. (2012) Proc Natl Acad Sci USA. 109:9161-66)."}, "[3]": {"test_system": "HCT116 cells", "experiment": "Bioenergetic analysis in intact cells (XF24 Extracellular Flux Analyzer)", "format": "cell-based, human", "details": "AOAA 1 mM", "description": "The XF24 Extracellular Flux Analyzer (Seahorse Bioscience, Billerica, Mass.) was used to measure bioenergetic function as described in Módis et al. ((2013) FASEB J 27:601-11) and Wu et al. ((2007) Am J Physiol Cell Physiol. 292:C125-36). Oxygen consumption rate (OCR) after oligomycin (1.5 μg/ml) was used to assess ATP production rate and OCR after FCCP (0.5 μM) to assess maximal mitochondrial respiratory capacity. 2-deoxyglucose (100 mM) was used to estimate cellular glycolytic dependency and antimycin A (2 μg/m) and rotenone (2 μM) were used to inhibit the flux of electrons through complex III and I, to detect residual non-mitochondrial activity. For the measurement of glycolytic parameters, the changes in proton production rate (PPR) were monitored in response to the sequential administration of D-glucose (10 mM), oligomycin (1.5 μM) and 2-deoxyglucose (100 mM), to assess glycolysis, maximal glycolytic capacity, glycolytic reserve capacity, and non-glycolytic acidification rate, respectively. GAPDH activity was determined by a kinetic assay (ScienCell, Carlsbad, Calif.)."}},
  "data": [
    {"smiles": "NOCC(=O)O", "note": "[AOAA, aminooxyacetic acid]", "values": [
      {"measurement": "rate of HCT116 xenograft growth", "setting": "[1]; 6 days/week", "value": "significantly slowed"},
      {"measurement": "tumor size and weight at harvest", "setting": "[1]; 6 days/week", "value": "reduced size and weight"},
      {"measurement": "plasma concentration of H2S", "setting": "[1]; tumor-bearing mice", "value": "reduction"},
      {"measurement": "HCT116-induced endothelial cell migration", "setting": "[2]", "value": "reduced"},
      {"measurement": "basal OCR, calculated ATP production, maximal respiration and Spare Respiratory Capacity", "setting": "[3]", "value": "significantly decreased"},
      {"measurement": "maximal glycolytic capacity and glycolytic reserve capacity", "setting": "[3]", "value": "significantly diminished"}
    ]}
  ]
}
